From paper PMC10821600 (The Journal of Biological Chemistry, 2023)
Like-named read-outs stand apart in the source and are kept apart here. No end group written: not given here.

Legend:
mouse NaV1.7 = mouse NaV1.7 (Mus musculus, UniProt Q62205); experiment: cell-based; conditions: SEM
human NaV1.9 = human NaV1.9 (Homo sapiens, UniProt Q9UI33); experiment: cell-based
human NaV1.8 = human NaV1.8 (Homo sapiens, UniProt Q9Y5Y9); experiment: cell-based
human NaV1.6 = human NaV1.6 (Homo sapiens, UniProt Q9UQD0); experiment: cell-based; conditions: SEM
human NaV1.7 = human NaV1.7 (Homo sapiens, UniProt Q15858); experiment: cell-based; conditions: SEM
human erythrocytes = conditions: red cells of human, 1 h
HEK293 cells = conditions: 1 h
blowflies (L. caesar) = test system: blowflies (L. caesar); set-up: species or system Lucilia caesar; conditions: in vivo
C57BL/6J mice = conditions: mouse, in vivo

Sequence of human NaV1.8 (Q9Y5Y9 whole entry): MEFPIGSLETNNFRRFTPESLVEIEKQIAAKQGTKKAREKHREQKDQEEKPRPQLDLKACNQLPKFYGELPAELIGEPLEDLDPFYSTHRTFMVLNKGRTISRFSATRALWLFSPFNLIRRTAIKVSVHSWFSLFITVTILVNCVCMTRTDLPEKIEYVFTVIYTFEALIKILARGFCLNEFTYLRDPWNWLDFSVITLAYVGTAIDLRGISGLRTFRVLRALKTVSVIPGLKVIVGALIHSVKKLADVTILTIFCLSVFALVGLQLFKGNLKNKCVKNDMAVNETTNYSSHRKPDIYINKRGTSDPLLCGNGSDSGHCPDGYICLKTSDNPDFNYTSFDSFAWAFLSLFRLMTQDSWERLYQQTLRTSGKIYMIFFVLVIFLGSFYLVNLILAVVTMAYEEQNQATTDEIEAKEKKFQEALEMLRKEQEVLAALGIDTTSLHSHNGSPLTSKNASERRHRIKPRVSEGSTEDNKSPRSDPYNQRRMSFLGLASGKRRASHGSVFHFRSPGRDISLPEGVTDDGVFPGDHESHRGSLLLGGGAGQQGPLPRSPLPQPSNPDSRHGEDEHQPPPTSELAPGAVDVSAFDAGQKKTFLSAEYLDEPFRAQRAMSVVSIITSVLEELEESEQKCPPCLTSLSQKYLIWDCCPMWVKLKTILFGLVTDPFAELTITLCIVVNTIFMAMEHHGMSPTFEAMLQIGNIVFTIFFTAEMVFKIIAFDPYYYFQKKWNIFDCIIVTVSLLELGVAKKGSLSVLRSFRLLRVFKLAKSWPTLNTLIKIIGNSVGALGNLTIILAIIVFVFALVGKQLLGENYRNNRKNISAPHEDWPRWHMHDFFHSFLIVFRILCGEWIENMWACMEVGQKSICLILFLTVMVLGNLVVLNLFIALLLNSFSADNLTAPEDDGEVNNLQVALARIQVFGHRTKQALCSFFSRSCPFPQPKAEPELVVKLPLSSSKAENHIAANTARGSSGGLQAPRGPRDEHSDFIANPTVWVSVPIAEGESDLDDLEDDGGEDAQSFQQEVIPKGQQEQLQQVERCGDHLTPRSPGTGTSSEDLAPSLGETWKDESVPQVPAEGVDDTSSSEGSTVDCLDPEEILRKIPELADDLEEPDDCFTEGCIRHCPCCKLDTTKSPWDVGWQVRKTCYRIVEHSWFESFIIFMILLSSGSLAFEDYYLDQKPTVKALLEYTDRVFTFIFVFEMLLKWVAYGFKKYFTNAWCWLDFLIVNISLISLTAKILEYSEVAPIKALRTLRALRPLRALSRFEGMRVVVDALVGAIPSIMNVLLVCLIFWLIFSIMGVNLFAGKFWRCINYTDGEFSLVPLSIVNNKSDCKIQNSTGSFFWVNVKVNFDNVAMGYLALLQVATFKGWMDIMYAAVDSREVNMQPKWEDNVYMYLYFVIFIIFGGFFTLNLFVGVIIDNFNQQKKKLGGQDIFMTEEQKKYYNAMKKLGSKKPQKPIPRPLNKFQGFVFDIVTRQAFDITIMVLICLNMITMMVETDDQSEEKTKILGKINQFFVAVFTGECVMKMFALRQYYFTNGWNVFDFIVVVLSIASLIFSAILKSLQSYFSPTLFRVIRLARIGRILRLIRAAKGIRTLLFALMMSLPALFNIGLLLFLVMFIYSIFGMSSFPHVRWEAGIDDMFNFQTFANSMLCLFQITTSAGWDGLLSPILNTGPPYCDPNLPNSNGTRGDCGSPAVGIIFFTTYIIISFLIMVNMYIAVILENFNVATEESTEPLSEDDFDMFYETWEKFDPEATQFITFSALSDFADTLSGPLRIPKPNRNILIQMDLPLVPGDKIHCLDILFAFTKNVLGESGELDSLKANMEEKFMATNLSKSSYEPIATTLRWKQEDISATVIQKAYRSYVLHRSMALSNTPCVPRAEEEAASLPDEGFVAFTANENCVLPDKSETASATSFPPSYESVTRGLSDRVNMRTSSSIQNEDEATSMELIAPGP
Sequence of human NaV1.9 (Q9UI33 whole entry): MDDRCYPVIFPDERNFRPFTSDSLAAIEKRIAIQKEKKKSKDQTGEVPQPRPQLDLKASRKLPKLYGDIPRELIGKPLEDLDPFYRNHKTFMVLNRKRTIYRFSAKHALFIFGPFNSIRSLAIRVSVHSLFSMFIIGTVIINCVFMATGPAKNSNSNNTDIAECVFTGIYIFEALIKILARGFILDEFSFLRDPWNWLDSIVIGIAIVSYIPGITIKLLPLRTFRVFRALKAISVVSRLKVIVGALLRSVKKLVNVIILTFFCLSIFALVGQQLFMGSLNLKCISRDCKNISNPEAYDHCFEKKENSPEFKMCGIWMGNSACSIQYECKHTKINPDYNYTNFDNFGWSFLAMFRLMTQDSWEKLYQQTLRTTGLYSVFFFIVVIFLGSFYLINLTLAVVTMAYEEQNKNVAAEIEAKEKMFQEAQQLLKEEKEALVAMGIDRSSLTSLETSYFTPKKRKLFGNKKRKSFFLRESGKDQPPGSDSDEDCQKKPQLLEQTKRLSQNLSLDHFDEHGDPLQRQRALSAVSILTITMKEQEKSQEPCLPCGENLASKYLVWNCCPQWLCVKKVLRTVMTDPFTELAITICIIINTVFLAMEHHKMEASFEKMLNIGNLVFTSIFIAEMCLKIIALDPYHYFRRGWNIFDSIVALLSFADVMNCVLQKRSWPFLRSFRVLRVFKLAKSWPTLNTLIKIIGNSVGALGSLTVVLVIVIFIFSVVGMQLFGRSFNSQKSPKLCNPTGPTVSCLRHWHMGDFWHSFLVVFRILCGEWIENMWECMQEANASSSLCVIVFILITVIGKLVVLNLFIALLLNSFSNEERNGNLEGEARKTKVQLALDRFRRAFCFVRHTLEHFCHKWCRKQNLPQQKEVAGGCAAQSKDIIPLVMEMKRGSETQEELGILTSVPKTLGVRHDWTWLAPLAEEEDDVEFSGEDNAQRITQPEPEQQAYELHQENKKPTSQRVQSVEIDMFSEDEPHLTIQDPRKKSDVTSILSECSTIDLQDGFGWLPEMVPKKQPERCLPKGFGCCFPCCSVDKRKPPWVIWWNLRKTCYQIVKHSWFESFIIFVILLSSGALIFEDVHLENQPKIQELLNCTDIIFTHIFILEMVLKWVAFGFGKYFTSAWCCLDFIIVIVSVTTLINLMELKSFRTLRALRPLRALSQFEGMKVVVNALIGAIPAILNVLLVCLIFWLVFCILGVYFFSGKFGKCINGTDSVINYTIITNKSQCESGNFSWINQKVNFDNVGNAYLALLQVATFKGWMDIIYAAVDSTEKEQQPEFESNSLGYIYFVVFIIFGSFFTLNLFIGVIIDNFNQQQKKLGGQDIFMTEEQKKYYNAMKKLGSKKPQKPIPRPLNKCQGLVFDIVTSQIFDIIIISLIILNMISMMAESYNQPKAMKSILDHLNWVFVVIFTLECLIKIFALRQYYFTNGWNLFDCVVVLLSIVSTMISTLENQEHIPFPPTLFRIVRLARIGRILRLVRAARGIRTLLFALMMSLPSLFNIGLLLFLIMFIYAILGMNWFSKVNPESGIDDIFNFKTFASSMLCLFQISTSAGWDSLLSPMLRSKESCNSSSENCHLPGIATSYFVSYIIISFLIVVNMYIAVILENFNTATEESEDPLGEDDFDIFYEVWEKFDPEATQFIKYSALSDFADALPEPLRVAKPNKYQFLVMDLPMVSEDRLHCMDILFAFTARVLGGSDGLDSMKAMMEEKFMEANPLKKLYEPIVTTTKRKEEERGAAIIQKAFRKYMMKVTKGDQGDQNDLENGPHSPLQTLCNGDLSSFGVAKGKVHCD

Row | Substance | EC50 (mouse NaV1.7) [nM] | EC50 (human NaV1.9) [nM] | EC50 (human NaV1.8; SEM) [nM] | EC50 (human NaV1.6) [nM] | EC50 (human NaV1.7) [nM] | median hemolytic concentration (HC50) (human erythrocytes) [nM] | median cytotoxic concentration (CC50) (HEK293 cells) [nM] | kind of paralysis in blowflies (blowflies (L. caesar)) | reversibility of paralysis in blowflies (blowflies (L. caesar)) | median paralytic dose PD50[1 h] (blowflies (L. caesar); SEM) [nmol/g] | spontaneous nocifensive behaviors in mice (C57BL/6J mice) | EC50 (human NaV1.8) [nM]
1 | ALPALPLLMFLFTLPALQHWIEKNWIN-NH2 [Pm2a] | 102 ± 18 | < 1000 | 2600 ± 700 | 176 ± 56 | 154 ± 17 | – | – | – | – | – | – | –
2 | GIFSALKTLGKILLPVILPTVAEKIKEKV-NH2 [Pm6a] | – | – | – | – | – | 618 ± 148 | 465 ± 359 | rapid paralysis | irreversible | 9.9 ± 0.4 | did not cause nociception in mice | –
3 | GLPLLALLFSLPVLQHWIEKNWIN-NH2 [Pm1a] | 352 ± 58 | > 1000 | – | 285 ± 47 | 403 ± 96 | – | – | – | – | – | – | > 10000
